These results are taken from patent publication US20120214710A1, “METHOD OF PREDICTING RESPONSE TO THALIDOMIDE IN MULTIPLE MYELOMA PATIENTS” (Dublin City University, priority 2009, published 2012).

One data set has as its system Multiple Myeloma. The data set can be described thus: Day-100 re-staging (IMWG uniform response criteria) of newly diagnosed MM patients on thalidomide-based regimens. The class given is in vivo, human. On the procedure: Serum samples from 51 consecutive newly diagnosed MM patients who were having initial treatment with thalidomide-based regimens were analyzed. Samples were obtained at diagnosis and prior to commencement of therapy. The samples were collected according to standard phlebotomy procedures from consented patients. Ethical consent was granted from the Mater Misericordiae University Hospital, Dublin, Ireland ethics committee. 10 ml of blood sample was collected into additive free blood tubes and was allowed to clot for 30 minutes to 1 hour at room temperature. Samples were coded and transported on ice to the laboratory. The serum was denuded by pipette from the clot and place into a clean tube. The tubes were centrifuged at 400 relative centrifugal force (rcf) for 30 minutes at 4° C. Serum was aliquoted in the cryovial tubes, labeled and stored at −80° C. until time of analysis. The time from sample procurement to storage at −80° C. was less than 3 hours. Each serum sample underwent no more than 3 freeze/thaw cycles prior to analysis.
The mean age of the patient group was 68 SD+/−6.95 years (range 52-81 years); 27 were male and 24 female. Based on Day-100 re-staging investigations and using the International Myeloma Working Group (IMWG) uniform response criteria (Rajkumar S V, Buadi F. Multiple myeloma: new staging systems for diagnosis, prognosis and response evaluation. Best Pract Res Clin Haematol. 2007; 20:665-680; Durie B G, Harousseau J L, Miguel J S, et al. International uniform response criteria for multiple myeloma. Leukemia. 2006;20:1467-1473) for MM, 29 responders and 22 non-responders to thalidomide-based therapy were identified. The mean age was 66 SD+/−6.80 years (range, 52-81 years) for responders and 70 SD+/−6.69 years (range, 57-79 years) for non-responders. Based on the ISS classification (Hotta T. [Classification, staging and prognostic indices for multiple myeloma]. Nippon Rinsho. 2007; 65:2161-2166), 6 responding patients had stage I, 15 had stage II and 8 had stage III disease. […] had stage I, 11 had stage II and 9 had stage III disease. In the responders group, 24 patients were treated with thalidomide and dexamethasone (TD), 3 with thalidomide, cyclophosphamide and dexamethasone (CTD) and 2 with melphalan, prednisone and thalidomide (MPT). In the non-responder group, 17 patients received TD, 4 received CTD and 1 patient received MPT. Median follow-up was 13 months (range, 6-21 months). In the responder group, 9 patients achieved complete response (CR) and 20 achieved very good partial response (VGPR). Five non-responders had Stable disease (SD) and the remaining 17 had Progressive disease (PD) (Table I).

The conditions of data set [1]: use in myeloma; cited from earlier work.
Where [2] appears, read: 51 newly diagnosed MM patients, Day-100 re-staging, IMWG criteria.

Turning to `O=C1CCC(N2C(=O)c3ccccc3C2=O)C(=O)N1` (stereo not drawn) [thalidomide, 2-(2,6-dioxopiperidin-3-yl)-1H-isoindole-1,3(2H)-dione], in the data set on Multiple Myeloma (setting [2]), the “number of non-responders (SD or PD)” value was 22 patients and the “number of responders (CR or VGPR)” value was 29 patients. Further, the “patients with Progressive disease (PD)” value with Multiple Myeloma (non-responder group, n=22) amounted to 17 patients. For the same molecule, in the data set on Multiple Myeloma (responder group, n=29), the “patients achieving complete response (CR)” value was determined as 9 patients and the “patients achieving very good partial response (VGPR)” value came to 20 patients. The serious side effects entry in data set [1] is “thrombo-embolic disease and peripheral neuropathy”.
